This passage reports Activity and IC50 results from ChEMBL document CHEMBL4316605, “3-Acyltetramic acids as a novel class of inhibitors for human kallikreins 5 and 7” (Bioorg Med Chem Lett, 2019).

Assay [1] concerns the target T1, Kallikrein-7 (Homo sapiens, UniProt P49862). In words: Inhibition of human KLK7 assessed as residual enzyme activity at 10 uM.
Target sequence in this assay (P49862 30-253 limits assumed): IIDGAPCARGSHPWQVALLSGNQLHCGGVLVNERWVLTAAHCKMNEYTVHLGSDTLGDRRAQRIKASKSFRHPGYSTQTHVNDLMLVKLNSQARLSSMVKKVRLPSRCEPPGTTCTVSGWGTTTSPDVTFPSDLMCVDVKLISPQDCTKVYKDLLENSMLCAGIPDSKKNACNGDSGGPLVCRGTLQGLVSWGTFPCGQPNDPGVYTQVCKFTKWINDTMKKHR
The target in assay [2] is T1, Kallikrein-7. In words: Inhibition of human KLK7 assessed as reduction in enzyme activity.
Target sequence in this assay (P49862 whole entry): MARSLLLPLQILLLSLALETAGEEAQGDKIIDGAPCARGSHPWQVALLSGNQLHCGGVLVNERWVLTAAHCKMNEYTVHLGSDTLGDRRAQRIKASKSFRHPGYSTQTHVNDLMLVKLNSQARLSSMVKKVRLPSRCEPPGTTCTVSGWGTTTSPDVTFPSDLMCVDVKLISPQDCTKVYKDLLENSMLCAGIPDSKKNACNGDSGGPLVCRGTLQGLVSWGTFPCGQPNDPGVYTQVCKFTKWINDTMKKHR
Assay [3] deals with Kallikrein-5 (Homo sapiens) (UniProt Q9Y337). Put plainly: Inhibition of human KLK5 assessed as residual enzyme activity at 10 uM.
A further assay concerns the target T2, Kallikrein-5 (Homo sapiens, UniProt Q9Y337).
T2 sequence (Q9Y337 whole entry): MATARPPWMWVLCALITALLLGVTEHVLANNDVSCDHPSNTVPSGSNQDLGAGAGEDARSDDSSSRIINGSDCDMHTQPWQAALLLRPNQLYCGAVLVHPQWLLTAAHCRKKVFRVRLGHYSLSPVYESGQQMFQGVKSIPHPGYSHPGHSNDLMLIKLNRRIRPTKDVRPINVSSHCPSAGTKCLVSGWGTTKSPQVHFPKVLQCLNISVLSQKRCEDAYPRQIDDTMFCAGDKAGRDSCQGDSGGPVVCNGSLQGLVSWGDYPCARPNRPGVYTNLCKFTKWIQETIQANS
In words: Inhibition of human KLK5 assessed as reduction in enzyme activity.

In assay [4] the target is T3, Trypsin (Homo sapiens, UniProt P07477+P07478+P35030). Put plainly: Inhibition of trypsin (unknown origin) assessed as reduction in enzyme activity. Type of assay: protein assay.
For assay [5], the target named is Chymotrypsin (Homo sapiens) (UniProt Q99895+P17538+P40313+Q6GPI1). In words: Inhibition of Chymotrypsin (unknown origin) assessed as residual enzyme activity at 10 uM. It counts as protein assay.
For assay [6], the target named is T3, Trypsin. In words: Inhibition of trypsin (unknown origin) assessed as residual enzyme activity at 10 uM. Type of assay: protein assay.

Each structure is given as a SMILES string.

For the compound `CC/C(O)=C1/C(=O)[C@H](Cc2ccccc2)N(C(=O)OC(C)(C)C)C1=O`, the results for the Activity (on Kallikrein-7 [1]; in assay [3]) were 50% and 80%, respectively. Besides, at Kallikrein-7 [2], the IC50 – broadly, the concentration that gives 50% inhibition – turned out to be 11000 nM.
In the case of `CCCC(C)/C(O)=C1/C(=O)[C@H](Cc2ccccc2)N(C(=O)OC(C)(C)C)C1=O` (some centres not stated), the Activity (on Kallikrein-7 [1]; in assay [3]) was 0% each time. The IC50 at Kallikrein-5 is 8000 nM; on Kallikrein-7 [2], 2500 nM.
Consider `CCCCCCCC/C=C\CCCCCCC/C(O)=C1/C(=O)[C@H](Cc2ccccc2)N(C(=O)OC(C)(C)C)C1=O`, for which the IC50 on Trypsin [4] stood at 2300 nM; on Kallikrein-5, 1800 nM; at Kallikrein-7 [2] it was 2500 nM. Further, the Activity at Kallikrein-7 [1] was 0%; in assay [5], 87%; at Trypsin [6], 5%; in assay [3] it was 0%.
For the compound `CCCCCCCCCCCCC/C(O)=C1/C(=O)[C@H](Cc2ccccc2)N(C(=O)OC(C)(C)C)C1=O`, the IC50 on Trypsin [4] was 2400 nM; at Kallikrein-5, 4900 nM; at Kallikrein-7 [2] it was 1700 nM. The Activity on Kallikrein-7 [1] came out at 0%; in assay [5], 90%; at Trypsin [6], 20%; in assay [3] it was 0%.
For the compound `CCCCCCCCCCCCCCCCC/C(O)=C1/C(=O)[C@H](Cc2ccccc2)N(C(=O)OC(C)(C)C)C1=O`, the Activity (on Kallikrein-7 [1]; in assay [3]) was 0% each time. Also, the IC50 on Kallikrein-5 stood at 17000 nM; on Kallikrein-7 [2], 2800 nM.
Consider `CCCCC/C=C\C/C=C\CCCCCCC/C(O)=C1/C(=O)[C@H](Cc2ccccc2)N(C(=O)OC(C)(C)C)C1=O`, for which the Activity (on Kallikrein-7 [1]; in assay [3]) was 50% each time. In addition, the IC50 at Kallikrein-5 and on Kallikrein-7 [2] was 14000 nM throughout.
As to `CCCCCCCCCCCCCCC/C(O)=C1/C(=O)[C@H](Cc2ccccc2)N(C(=O)OC(C)(C)C)C1=O`, the Activity (on Kallikrein-7 [1]; in assay [3]) was 0% throughout. Besides, the IC50 on Kallikrein-5 was 12000 nM; at Kallikrein-7 [2] it was 2900 nM.
As for `CCCCCCCCCCC/C(O)=C1/C(=O)[C@H](Cc2ccccc2)N(C(=O)OC(C)(C)C)C1=O`, the IC50 at Trypsin [4] is 2100 nM; on Kallikrein-5, 3600 nM; at Kallikrein-7 [2], 2300 nM. Moreover, the Activity worked out at 0% on Kallikrein-7 [1], 98% in assay [5], 10% at Trypsin [6] and 0% in assay [3].
On to `CC(C)C/C(O)=C1/C(=O)[C@H](Cc2ccccc2)N(C(=O)OC(C)(C)C)C1=O`, for which the Activity came out at 70% at Kallikrein-7 [1] and 80% in assay [3].
